Measurements taken from ChEMBL document CHEMBL1141792, “Swartziarboreol diterpenes from Swartzia langsdorffii Raddi” (J Nat Prod, 2005).
Active and inactive are the calls of the source. The rule behind the calls is not given here.

Tested on: Staphylococcus aureus
Test: Antibacterial activity against Staphylococcus aureus CCT 4295
Assay type: functional, organism-based

Q: How did the Activity turn out when `COc1c(O)c2c(c3c1CCOC3=O)CC[C@H]1C(C)(C)CCC[C@]21C` was run?
A: Active
